From US20240208992A1, “MACROCYCLES AS CFTR MODULATORS” (Idorsia Pharmaceuticals Ltd, priority 2021, published 2024)

Target: human F508del-CFTR (Homo sapiens, UniProt P13569, DEL508-508)
Experiment: F508del-CFTR cell surface expression (corrector activity), DiscoveRx ß-galactosidase complementation chemiluminescence assay in recombinant U2OS cell line;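 note: U2OS cells co-expressing ProLink-tagged F508del-CFTR and a membrane-anchored enzyme acceptor, where more surface CFTR restores β-galactosidase activity measured by chemiluminescence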
Details: U2OS cell line, 16h compound incubation; for EC50: EC50, F508del-CFTR cell surface expression, geomean values; for Emax: U2OS, in relation to the Emax of the corrector lumacaftor (=100%), arithmetic mean values

Chain of human F508del-CFTR (P13569 with tags, fused parts or gaps DEL508-508): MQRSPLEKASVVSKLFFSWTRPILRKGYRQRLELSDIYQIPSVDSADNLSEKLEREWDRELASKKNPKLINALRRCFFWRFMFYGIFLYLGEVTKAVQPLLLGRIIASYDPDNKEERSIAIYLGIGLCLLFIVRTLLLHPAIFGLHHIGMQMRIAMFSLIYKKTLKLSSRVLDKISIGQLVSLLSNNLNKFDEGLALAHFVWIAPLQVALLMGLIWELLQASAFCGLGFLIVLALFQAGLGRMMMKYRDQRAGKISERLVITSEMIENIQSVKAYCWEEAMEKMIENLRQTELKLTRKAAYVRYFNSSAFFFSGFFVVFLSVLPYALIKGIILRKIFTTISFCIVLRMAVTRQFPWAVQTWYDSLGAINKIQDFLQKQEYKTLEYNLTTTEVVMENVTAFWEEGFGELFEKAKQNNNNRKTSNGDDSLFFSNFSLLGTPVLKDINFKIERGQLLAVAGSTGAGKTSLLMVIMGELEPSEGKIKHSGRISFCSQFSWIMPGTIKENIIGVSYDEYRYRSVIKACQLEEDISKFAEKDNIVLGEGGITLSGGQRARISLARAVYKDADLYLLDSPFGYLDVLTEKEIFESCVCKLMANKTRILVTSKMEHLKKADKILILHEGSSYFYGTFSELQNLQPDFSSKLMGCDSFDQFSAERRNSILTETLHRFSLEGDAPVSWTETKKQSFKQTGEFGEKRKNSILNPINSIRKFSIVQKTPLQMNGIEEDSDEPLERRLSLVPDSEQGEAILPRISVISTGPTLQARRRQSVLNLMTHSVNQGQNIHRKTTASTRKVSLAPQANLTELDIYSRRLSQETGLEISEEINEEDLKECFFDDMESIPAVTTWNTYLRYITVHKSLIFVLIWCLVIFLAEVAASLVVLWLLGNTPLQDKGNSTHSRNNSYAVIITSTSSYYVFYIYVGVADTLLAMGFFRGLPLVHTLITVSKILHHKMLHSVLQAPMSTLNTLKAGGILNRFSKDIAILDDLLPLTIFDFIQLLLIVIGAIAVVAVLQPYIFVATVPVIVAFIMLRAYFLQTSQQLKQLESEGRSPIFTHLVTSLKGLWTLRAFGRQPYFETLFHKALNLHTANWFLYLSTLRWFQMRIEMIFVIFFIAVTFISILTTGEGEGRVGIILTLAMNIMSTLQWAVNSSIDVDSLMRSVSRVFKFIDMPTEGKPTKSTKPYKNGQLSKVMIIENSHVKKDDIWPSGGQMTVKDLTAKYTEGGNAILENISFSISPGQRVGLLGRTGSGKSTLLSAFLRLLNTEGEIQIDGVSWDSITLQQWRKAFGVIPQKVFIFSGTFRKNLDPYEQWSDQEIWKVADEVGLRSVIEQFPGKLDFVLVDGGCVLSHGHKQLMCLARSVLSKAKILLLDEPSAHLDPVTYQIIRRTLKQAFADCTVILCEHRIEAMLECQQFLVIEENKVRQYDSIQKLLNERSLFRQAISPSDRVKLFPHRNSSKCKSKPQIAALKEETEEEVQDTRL

SMILES | EC50 [nM] | Emax [%]
CC(C)C[C@H]1C(=O)N(CCC2CCCCC2)CC(=O)N[C@H](Cc2ccccc2)COc2ccc3c(c2C(=O)N[C@H](C(=O)NCCc2ccc4c(c2)OCO4)CC(=O)N1C)OCO3 [Example 345, (8R,14S,18S)-N-(2-(benzo[d][1,3]dioxol-5-yl)ethyl)-8-benzyl-12-(2-cyclohexylethyl)-14-isobutyl-15-methyl-10,13,16,20-tetraoxo-7,8,9,10,11,12,13,14,15,16,17,18,19,20-tetradecahydro-[1,3]dioxolo[4′,5′:5,6]benzo[1,2-p][1]oxa[4,7,10,14]tetraazacycloheptadecine-18-carboxamide] | 95 | 268
COc1cccc(CCNC(=O)[C@@H]2CC(=O)N(C)[C@@H](CC(C)C)C(=O)N(CCC3CCCCC3)CC(=O)N[C@H](Cc3ccccc3)COc3ccc4c(c3C(=O)N2)OCO4)c1 [Example 346, (8R,14S,18S)-8-benzyl-12-(2-cyclohexylethyl)-14-isobutyl-N-(3-methoxyphenethyl)-15-methyl-10,13,16,20-tetraoxo-7,8,9,10,11,12,13,14,15,16,17,18,19,20-tetradecahydro-[1,3]dioxolo[4′,5′:5,6]benzo[1,2-p][1]oxa[4,7,10,14]tetraazacycloheptadecine-18-carboxamide] | 106 | 282
[2H]C([2H])([2H])Oc1cccc(CCNC(=O)[C@@H]2CC(=O)N(C)[C@@H](CC(C)C)C(=O)N(CCC3CCCCC3)CC(=O)N[C@H](Cc3ccccc3)COc3ccc4c(c3C(=O)N2)OCO4)c1 [Example 347, (8R,14S,18S)-8-benzyl-12-(2-cyclohexylethyl)-14-isobutyl-N-(3-(methoxy-d3)phenethyl)-15-methyl-10,13,16,20-tetraoxo-7,8,9,10,11,12,13,14,15,16,17,18,19,20-tetradecahydro-[1,3]dioxolo[4′,5′:5,6]benzo[1,2-p][1]oxa[4,7,10,14]tetraazacycloheptadecine-18-carboxamide] | 131 | 282
COc1cccc(CCNC(=O)[C@@H]2CC(=O)N(C)[C@@H](CC(C)C)C(=O)N3CCN(C4CC4)C[C@@H]3C(=O)N[C@H](Cc3ccccc3)COc3ccc4ncn(C)c4c3C(=O)N2)c1 [Example 348, (8S,12S,18aR,21R)-21-benzyl-17-cyclopropyl-12-isobutyl-N-(3-methoxyphenethyl)-5,11-dimethyl-6,10,13,19-tetraoxo-6,7,8,9,10,11,12,13,16,17,18,18a,19,20,21,22-hexadecahydro-5H,15H-imidazo[4′,5′:5,6]benzo[1,2-p]pyrazino[2,1-f][1]oxa[4,7,10,14]tetraazacycloheptadecine-8-carboxamide] | 340 | 155
CC(C)C[C@H]1C(=O)N(C)CC(=O)N[C@H](Cc2ccccc2)COc2cnc3c(F)cccc3c2C(=O)N[C@H](C(=O)NCCc2ccc3c(c2)OCO3)CC(=O)N1C [Example 349, (3S,7S,13R)-N-(2-(benzo[d][1,3]dioxol-5-yl)ethyl)-13-benzyl-18-fluoro-7-isobutyl-6,9-dimethyl-1,5,8,11-tetraoxo-1,2,3,4,5,6,7,8,9,10,11,12,13,14-tetradecahydro-[1]oxa[4,7,10,14]tetraazacycloheptadecino[17,16-c]quinoline-3-carboxamide] | 597 | 258
COc1cccc(CCNC(=O)[C@@H]2CC(=O)N(C)[C@@H](CC(C)C)C(=O)N(C)CC(=O)N[C@H](Cc3ccccc3)COc3cnc4c(F)cccc4c3C(=O)N2)c1 [Example 350, (3S,7S,13R)-13-benzyl-18-fluoro-7-isobutyl-N-(3-methoxyphenethyl)-6,9-dimethyl-1,5,8,11-tetraoxo-1,2,3,4,5,6,7,8,9,10,11,12,13,14-tetradecahydro-[1]oxa[4,7,10,14]tetraazacycloheptadecino[17,16-c]quinoline-3-carboxamide] | 546 | 299
COc1cccc(CCNC(=O)[C@@H]2CC(=O)N(C)[C@@H](CC(C)C)C(=O)N3CCCC[C@@H]3C(=O)N[C@H](Cc3ccccc3)COc3ccc4oc(C)nc4c3C(=O)N2)c1 [Example 351, (8S,12S,18aR,21R)-21-benzyl-12-isobutyl-N-(3-methoxyphenethyl)-4,11-dimethyl-6,10,13,19-tetraoxo-6,7,8,9,10,11,12,13,16,17,18,18a,19,20,21,22-hexadecahydro-15H-oxazolo[5′,4′:5,6]benzo[1,2-p]pyrido[2,1-f][1]oxa[4,7,10,14]tetraazacycloheptadecine-8-carboxamide] | 756 | 127
COc1cccc(CCNC(=O)[C@@H]2CC(=O)N(C)[C@@H](CC(C)C)C(=O)N3CCN(C(C)C)C[C@@H]3C(=O)N[C@H](Cc3ccccc3)COc3ccc4nc(C)oc4c3C(=O)N2)c1 [Example 352, (8S,12S,18aR,21R)-21-benzyl-12-isobutyl-17-isopropyl-N-(3-methoxyphenethyl)-4,11-dimethyl-6,10,13,19-tetraoxo-6,7,8,9,10,11,12,13,16,17,18,18a,19,20,21,22-hexadecahydro-15H-oxazolo[4′,5′:5,6]benzo[1,2-p]pyrazino[2,1-f][1]oxa[4,7,10,14]tetraazacycloheptadecine-8-carboxamide] | 297 | 262
COc1cccc(CCNC(=O)[C@@H]2CC(=O)N(C)[C@@H](CC(C)C)C(=O)N3CCN(C(C)C)C[C@@H]3C(=O)N[C@H](Cc3ccccc3)COc3ccc4ncn(C)c4c3C(=O)N2)c1 [Example 353, (8S,12S,18aR,21R)-21-benzyl-12-isobutyl-17-isopropyl-N-(3-methoxyphenethyl)-5,11-dimethyl-6,10,13,19-tetraoxo-6,7,8,9,10,11,12,13,16,17,18,18a,19,20,21,22-hexadecahydro-5H,15H-imidazo[4′,5′:5,6]benzo[1,2-p]pyrazino[2,1-f][1]oxa[4,7,10,14]tetraazacycloheptadecine-8-carboxamide] | 513 | 177
COCCN1CCN2C(=O)[C@H](CC(C)C)N(C)C(=O)C[C@@H](C(=O)NCCc3cccc(OC)c3)NC(=O)c3c(ccc4ccccc34)OC[C@@H](Cc3ccccc3)NC(=O)[C@H]2C1 [Example 354, (4aR,7R,18S,22S)-7-benzyl-22-isobutyl-3-(2-methoxyethyl)-N-(3-methoxyphenethyl)-21-methyl-5,16,20,23-tetraoxo-2,3,4,4a,5,6,7,8,16,17,18,19,20,21,22,23-hexadecahydro-1H-naphtho[1,2-p]pyrazino[2,1-f][1]oxa[4,7,10,14]tetraazacycloheptadecine-18-carboxamide] | 231 | 321
COc1cccc(CCNC(=O)[C@@H]2CC(=O)N(C)[C@@H](CC(C)C)C(=O)N3CCN(C4CCC4)C[C@@H]3C(=O)N[C@H](Cc3ccccc3)COc3ccc4ccccc4c3C(=O)N2)c1 [Example 355, (4aR,7R,18S,22S)-7-benzyl-3-cyclobutyl-22-isobutyl-N-(3-methoxyphenethyl)-21-methyl-5,16,20,23-tetraoxo-2,3,4,4a,5,6,7,8,16,17,18,19,20,21,22,23-hexadecahydro-1H-naphtho[1,2-p]pyrazino[2,1-f][1]oxa[4,7,10,14]tetraazacycloheptadecine-18-carboxamide] | 87 | 307
COc1cccc(CCNC(=O)[C@@H]2CC(=O)N(C)[C@@H](CC(C)C)C(=O)N3CCN(C4CC4)C[C@@H]3C(=O)N[C@H](Cc3ccccc3)COc3ccc4ccccc4c3C(=O)N2)c1 [Example 356, (4aR,7R,18S,22S)-7-benzyl-3-cyclopropyl-22-isobutyl-N-(3-methoxyphenethyl)-21-methyl-5,16,20,23-tetraoxo-2,3,4,4a,5,6,7,8,16,17,18,19,20,21,22,23-hexadecahydro-1H-naphtho[1,2-p]pyrazino[2,1-f][1]oxa[4,7,10,14]tetraazacycloheptadecine-18-carboxamide] | 167 | 353
COc1cccc(CCNC(=O)[C@@H]2CC(=O)N(C)[C@@H](CC(C)C)C(=O)N3CCN(C4CC4)C[C@H]3C(=O)N[C@H](Cc3ccccc3)COc3ccc4ccccc4c3C(=O)N2)c1 [Example 357, (4aS,7R,18S,22S)-7-benzyl-3-cyclopropyl-22-isobutyl-N-(3-methoxyphenethyl)-21-methyl-5,16,20,23-tetraoxo-2,3,4,4a,5,6,7,8,16,17,18,19,20,21,22,23-hexadecahydro-1H-naphtho[1,2-p]pyrazino[2,1-f][1]oxa[4,7,10,14]tetraazacycloheptadecine-18-carboxamide] | 475 | 124
CN1C(=O)C[C@@H](C(=O)NCCc2ccc3c(c2)OCO3)NC(=O)c2c(ccc3ccccc23)OC[C@@H](Cc2ccccc2)NC(=O)CN(CC[C@@H]2CCCCO2)C(=O)[C@@H]1CC1CC1 [Example 358, (3S,7S,13R)-N-(2-(benzo[d][1,3]dioxol-5-yl)ethyl)-13-benzyl-7-(cyclopropylmethyl)-6-methyl-1,5,8,11-tetraoxo-9-(2-((S)-tetrahydro-2H-pyran-2-yl)ethyl)-1,2,3,4,5,6,7,8,9,10,11,12,13,14-tetradecahydronaphtho[1,2-p][1]oxa[4,7,10,14]tetraazacycloheptadecine-3-carboxamide] | 411 | 171
CN1C(=O)C[C@@H](C(=O)NCCc2ccc3c(c2)OCO3)NC(=O)c2c(ccc3ccccc23)OC[C@@H](Cc2ccccc2)NC(=O)CN(CC[C@H]2CCCCO2)C(=O)[C@@H]1CC1CC1 [Example 359, (3S,7S,13R)-N-(2-(benzo[d][1,3]dioxol-5-yl)ethyl)-13-benzyl-7-(cyclopropylmethyl)-6-methyl-1,5,8,11-tetraoxo-9-(2-((R)-tetrahydro-2H-pyran-2-yl)ethyl)-1,2,3,4,5,6,7,8,9,10,11,12,13,14-tetradecahydronaphtho[1,2-p][1]oxa[4,7,10,14]tetraazacycloheptadecine-3-carboxamide] | 318 | 144
